The values below come from patent publication US7524851B2 (Robert Bosch Gesellschaft fur Medizinische Forschung (RBMF), priority 2003, dated 2009).

For test [1], the system named is primary CD4+ T lymphocytes. Description: Annexin V/propidium iodide FACS apoptosis of stimulated primary blood CD4+ T lymphocytes. The note with it: for apoptosis induction during the first 2 days after administration: kinetic studies; for apoptosis of primary blood CD4+ T lymphocytes: day 5. In kind it is cell-based, human. From the text:
Isolation of primary CD4^+ T lymphocytes and lamina propria cells: Human peripheral blood mononuclear cells (PBMCs) from healthy volunteers (25-42 years of age) and patients with Crohn's disease (31-65 years of age) were isolated using Ficoll-Hypaque gradients. PBMCs were further purified using CD4 monoclonal antibodies attached to immunomagnetic beads according to the manufacturer's protocol, followed by treatment with Detachabead (Dynal; Oslo, Norway). In some cases, CD4^+ T cells were further separated by negative selection techniques using CD45RO or CD45RA monoclonal antibodies (PharMingen; Heidelberg, Germany) and immunomagnetic beads (Dynal). […] Lamina propria mononuclear cells (LPMCs) from patients with IBD were isolated from gut specimens using a short-term (5-minute) digestion protocol with collagenase V, hyaluronidase (Sigma-Aldrich; St. Louis, Mo., USA), and DNase (Roche; Mannheim, Germany), as recently described in detail in Holtmann et al., Eur. J. Immunol. 32:3142-3151 (2002). Briefly, specimens were washed in calcium- and magnesium-free HBSS (HBSS-CMF), cut into 0.5-cm pieces, and incubated twice in HBSS containing EDTA (0.37 mg/ml) and DTT (0.145 mg/ml) at 37° C. for 15 minutes, followed by subsequent digestion for 5 minutes with collagenase V 400 (1 mg/ml), deoxyribonuclease (0.1 mg/ml DNase), and hyaloronidase (0.1 mg/ml) in a shaking incubator at 37° C. The digested tissue was washed twice in RPMI medium containing 10% FCS and centrifuged. The tissue was finally mechanically homogenized (DAKO homogenizer; Hamburg, Germany) for 4 minutes, and cells were filtered through a sterile 40-μm cell strainer (Falcon; San Diego, Calif., USA).
Such CD28 costimulation is known to prevent apoptosis of primary T cells during T cell receptor (TCR) stimulation through activation of bcl-x, and NF-κB (Noel et al., J. Immunol. 157:636-647 (1996); Radvanyi et al., J. Immunol. 156:1788-1798 (1996); Khoshnan et al., J. Immunol. 165:1743-1754 (2000)). […] In addition, recombinant IL-2 (R&D Systems; Wiesbaden, Germany) was used at a final concentration of 40 U/ml in all experiments. Lamina propria T lymphocytes were stimulated with antibodies to CD2 (4 μg/ml; Immunotech; Marseille, France) and CD28 (1 μg/ml). […] To block CD95L-mediated (FasL-mediated) apoptosis, the NOK-1 antibody (4 μg/ml, PharMingen) was used whose Fab fragments bind to human CD95L (FasL) (Jodo et al., J. Immunol. 165:5487-5494 (2000)). Recombinant human FasL (Alexis Biochemicals; Heidelberg, Germany) was used as a positive control for the NOK-1 antibody (10 μg/ml).
For FACS analysis, apoptotic cells were detected by staining with annexin V and propidium iodide using the Annexin V FITC Apoptosis Detection Kit I (PharMingen) (Atreya et al., Nat. Med. 6:583-588 (2000)). In brief, T cells were washed twice in PBS, and the pellet was resuspended in annexin V binding buffer (PharMingen) at a concentration of 10^6 cells per milliliter. Annexin V FITC and propidium iodide were added (5 ill of each per 10^5 cells). Samples were gently mixed and incubated for 15 minutes at room temperature in the dark before FACS analysis. To verify the results obtained with the annexin V/propidium iodide staining, analysis of T cells displaying DNA fragmentation was also determined by the Nicoletti technique, as described in (Nicoletti et al., J. Immunol. Methods 139:271-279 (1991)). 10^6 T cells were fixed in 70% ethanol, washed once in HBSS, resuspended in 1 ml of HBSS and 1 ml of phosphate citric acid buffer (0.2 mol/l Na2PO4 and 0.004 mol/l citric acid [pH 7.8]), and incubated at room temperature for 5 minutes. After centrifugation, cells were resuspended in 1 ml of HBSS containing 20 μg/ml propidium iodide and 10 U DNase-free RNase A and incubated at room temperature for 30 minutes. Finally, cells were analyzed on a FACScan flow cytometer. Because of the fragmentation of DNA, apoptotic cells appear as hypodiploid in the DNA histogram.

A further test deals with bcl-xL. Description: bcl-xL protein expression (Western blot, intracellular FACS). Type of test: cell-based, human. Conditions: activated T cells. Here is the method:
FACS analysis: Analysis of peripheral blood T cells and lamina propria T lymphocytes by FACS (FACSscan; Becton Dickinson; Berlin, Germany) was performed using FITC-labeled murine antibodies to human CD4 (PharMingen), anti-mouse IgG1 isotype control antibodies (PharMingen), antibodies to bcl-xL and p mitogen-activated protein kinase kinase (pMEK) (Santa Cruz Biotech; Santa Cruz, Calif., USA), and goat anti-mouse Fab-FITC (DAKO). For intracellular staining analysis, T cells were fixed in PBS/4% paraformaldehyde (Merck; Munich, Germany) for 10 minutes at 4° C., washed twice in PBS, permeabilized in PBS/0.1% Triton X-100 (Sigma-Aldrich; Steinheim, Germany), and treated with mouse anti-human bcl-xL or MEK antibodies (2 μg per 5×10^5 cells) for 30 minutes on ice. T cells were washed twice in PBS/0.1% Triton X-100 before incubation with goat anti-mouse Fab-FITC (2 μl per 10^5 cells). Finally, T cells were washed twice in PBS before FACS analysis.
The cells were then washed in PBS, resuspended in 1 ml of T40E10N150 buffer (40 mM Tris-HCl [pH 7.9], 10 mM EDTA [pH 8.0], 150 mM NaCl), put on ice for 5 minutes, and centrifuged for 4 minutes at 4° C. at 1,000 rpm. […] The protein concentrations in supernatants were determined with the Bio-Rad Protein Assay (Bio-Rad; Munich, Germany). […]
Background: In western blotting, separated proteins are transferred to a membrane and probed.

[2] abbreviates: stimulated through the TCR/CD3 complex plus CD28.
Where [3] appears, read: stimulated with anti-CD3 antibodies alone.

Regarding `Sc1ncnc2nc[nH]c12` [6-MP, 6-mercaptopurine], in test [1], the “apoptosis induction during the first 2 days after administration” value is recorded as “no apoptosis induction”. Further, the “apoptosis of primary blood CD4+ T lymphocytes” value is on record as “induced apoptosis” in test [1] (setting [2]) and “no apoptosis” in test [1] (setting [3]). For the same compound, in the test with bcl-xL, the bcl-xL protein expression entry is “strongly suppressed”.

Turning to `Cn1cnc([N+](=O)[O-])c1Sc1ncnc2nc[nH]c12` [azathioprine, Azathioprine], the “concentration at which T cell apoptosis occurred” value in test [1] (FIGS. 1a and 1b) was 5 µM. Besides, the “apoptosis of already preactivated T lymphocytes” value in test [1] (drug added at day 5, annexin V/propidium iodide at day 10) is reported as “induced apoptosis”. The “apoptosis induction during the first 2 days after administration” value in test [1] is recorded as “no apoptosis induction”. The “apoptosis of primary blood CD4+ T lymphocytes” value in test [1] (setting [2]) was “induced apoptosis”; in test [1] (setting [3]) it was “no apoptosis”. The bcl-xL protein expression entry in the test on bcl-xL is “strongly suppressed”.
